According to patent publication US5153352A, “Process for preparation of intermediates of carbocyclic nucleoside analogs” (priority 1990, dated 1992):

Experiments:
[1] = test system: duck hepatitis B virus (DHBV); experiment: efficacy against hepatitis B virus in vivo in ducklings; set-up: species or system Peking duckling infected with duck hepatitis B virus
Procedure: The test method is an adaptation of the method of Smee, et al., Antimicrob. Agents Chemotherap. 27 277 (1985). The serum level of duck hepatitis B virus (DHBV) DNA was monitored in 6 infected Peking ducklings from age 6 days to age 27 days. Four ducklings were treated with 70 mg/kg/day IP, b.i.d. of the test compound as a 3 mg/ml solution in 0.9% aqueous NaCl on days 10-17. Two control ducklings were treated with 23 ml/kg/day IP, b.i.d. of 0.9% aqueous NaCl on days 10-17. The level of DHBV DNA in the duckling serum was measured daily.

Epstein-Barr virus (EBV) = experiment: EBV genome copies in virus producing cells (P3HR-1); type: cell-based; settings: P3HR-1 cells, 14 days, control 214
Procedure: Virus producing cells (P3HR-1) were exposed to test compound for 14 days and EBV genome copies per cell were determined by EBV specific cRNA DNA hybridization (Lin, et al., J. Virology 50 50-55 (1984). The results of this test are presented in Table 7.

in vitro [2] = settings: monkey, vero cells, MTC (minimum drug concentration causing any cytotoxicity)
in vitro [3] = settings: human, human foreskin fibroblasts, MTT Assay
[4] = drug cytotoxicity in Vero cells (CPE-inhibition assay); settings: monkey, vero cells
Vero cells = experiment: as above; settings: Vero

Nc1nc2c(ncn2C2CC(CO)C2CO)c(=O)[nH]1 (stereo not drawn) [Example 1I, 9-(2',3'-Bis(hydroxymethyl)cyclobutyl)guanine]
Serum DHBV DNA ([1]; duck 2, age 25 days, 70 mg/kg/day IP days 10-17): 2 ng/mL | Serum DHBV DNA ([1]; duck 2, age 26 days, 70 mg/kg/day IP days 10-17): 2 ng/mL | Serum DHBV DNA ([1]; duck 2, age 27 days, 70 mg/kg/day IP days 10-17): 7 ng/mL | Serum DHBV DNA ([1]; duck 3, age 6 days, before treatment): 520 ng/mL | Serum DHBV DNA ([1]; duck 3, age 7 days, before treatment): 311 ng/mL | Serum DHBV DNA ([1]; duck 3, age 8 days, before treatment): 277 ng/mL | Serum DHBV DNA ([1]; duck 3, age 9 days, before treatment): 412 ng/mL | Serum DHBV DNA ([1]; duck 3, age 10 days, 70 mg/kg/day IP days 10-17): 377 ng/mL | Serum DHBV DNA ([1]; duck 3, age 11 days, 70 mg/kg/day IP days 10-17): 130 ng/mL | Serum DHBV DNA ([1]; duck 3, age 12 days, 70 mg/kg/day IP days 10-17): 77 ng/mL | Serum DHBV DNA ([1]; duck 3, age 13 days, 70 mg/kg/day IP days 10-17): 16 ng/mL | Serum DHBV DNA ([1]; duck 3, age 14 days, 70 mg/kg/day IP days 10-17): 2 ng/mL | Serum DHBV DNA ([1]; duck 3, age 15 days, 70 mg/kg/day IP days 10-17): 2 ng/mL | Serum DHBV DNA ([1]; duck 3, age 16 days, 70 mg/kg/day IP days 10-17): < 1 ng/mL | Serum DHBV DNA ([1]; duck 3, age 17 days, 70 mg/kg/day IP days 10-17): < 1 ng/mL | Serum DHBV DNA ([1]; duck 3, age 18 days, 70 mg/kg/day IP days 10-17): < 1 ng/mL | Serum DHBV DNA ([1]; duck 4, age 6 days, before treatment): 288 ng/mL | Serum DHBV DNA ([1]; duck 4, age 7 days, before treatment): 215 ng/mL | Serum DHBV DNA ([1]; duck 4, age 8 days, before treatment): 256 ng/mL | Serum DHBV DNA ([1]; duck 4, age 9 days, before treatment): 311 ng/mL | Serum DHBV DNA ([1]; duck 4, age 10 days, 70 mg/kg/day IP days 10-17): 333 ng/mL | Serum DHBV DNA ([1]; duck 4, age 11 days, 70 mg/kg/day IP days 10-17): 132 ng/mL | Serum DHBV DNA ([1]; duck 4, age 12 days, 70 mg/kg/day IP days 10-17): 21 ng/mL | Serum DHBV DNA ([1]; duck 4, age 13 days, 70 mg/kg/day IP days 10-17): 2 ng/mL | Serum DHBV DNA ([1]; duck 4, age 14 days, 70 mg/kg/day IP days 10-17): 1 ng/mL | Serum DHBV DNA ([1]; duck 4, age 15 days, 70 mg/kg/day IP days 10-17): 1 ng/mL | Serum DHBV DNA ([1]; duck 4, age 16 days, 70 mg/kg/day IP days 10-17): 1 ng/mL | Serum DHBV DNA ([1]; duck 4, age 17 days, 70 mg/kg/day IP days 10-17): < 1 ng/mL | Serum DHBV DNA ([1]; duck 4, age 18 days, 70 mg/kg/day IP days 10-17): < 1 ng/mL | Serum DHBV DNA ([1]; duck 4, age 19 days, 70 mg/kg/day IP days 10-17): < 1 ng/mL | Serum DHBV DNA ([1]; duck 4, age 20 days, 70 mg/kg/day IP days 10-17): < 1 ng/mL | Serum DHBV DNA ([1]; duck 4, age 21 days, 70 mg/kg/day IP days 10-17): < 1 ng/mL | Serum DHBV DNA ([1]; duck 4, age 22 days, 70 mg/kg/day IP days 10-17): < 1 ng/mL | Serum DHBV DNA ([1]; duck 4, age 23 days, 70 mg/kg/day IP days 10-17): < 1 ng/mL | Serum DHBV DNA ([1]; duck 4, age 24 days, 70 mg/kg/day IP days 10-17): < 1 ng/mL | Serum DHBV DNA ([1]; duck 4, age 25 days, 70 mg/kg/day IP days 10-17): < 1 ng/mL | death of treated ducks ([1]; ducks 3 and 4, 70 mg/kg/day IP b.i.d. days 10-17): ducks 3 and 4 died on day 18 and day 26, respectively | EBV genome copies/cell (Epstein-Barr virus (EBV); 0.01 uM): 223 EBV genome copies/cell | EBV genome copies/cell (Epstein-Barr virus (EBV); 0.10 uM): 181 EBV genome copies/cell | EBV genome copies/cell (Epstein-Barr virus (EBV); 1.00 uM): 40 EBV genome copies/cell | EBV genome copies/cell (Epstein-Barr virus (EBV); 5.00 uM): 12 EBV genome copies/cell | EBV genome copies/cell (Epstein-Barr virus (EBV); 10.00 uM): 10 EBV genome copies/cell | MCC (in vitro [2]): 320 µg/mL | viability (in vitro [3]; 3.2 ug/ml): 79% | viability (in vitro [3]; 10 ug/ml): 76% | viability (in vitro [3]; 32 ug/ml): 72% | viability (in vitro [3]; 100 ug/ml): 62% | MCC [4]: 100 µg/mL | MCC ([4]; MTC (minimum drug concentration causing any cytotoxicity), Vero, HSV-2 (MS) experiment): 320 µg/mL | MTC (minimum drug concentration causing any cytotoxicity) (Vero cells; HSV-2 (BW9787) TK- experiment): 100 µg/mL | MTC (minimum drug concentration causing any cytotoxicity) (Vero cells; HSV-2 (MS) experiment): 320 µg/mL
